Experimental data reported in US10934294B2, “Substituted pyrazolo[3,4-d]pyrimidines as PDE9 inhibitors” (Merck Sharp & Dohme Corp., priority 2017, dated 2021).
Like-named read-outs stand apart in the source and are kept apart here.

Target: Human PDE9 (PDE9A2) (Homo sapiens (Human), UniProt O76083)
Assay: PDE9 IMAP fluorescence polarization (FP) inhibition assay
Assay type: biochemical
[1] = apparent inhibition constant, FAM-cGMP substrate 50 nM, room temperature, read-out: PDE9 IMAP Ki
[2] = read-out: PDE9 IMAP Ki, apparent inhibition constant, FAM-cGMP substrate 50 nM, room temperature

Human PDE9 (PDE9A2), sequence (O76083 other isoform, or with tags, fused parts or gaps): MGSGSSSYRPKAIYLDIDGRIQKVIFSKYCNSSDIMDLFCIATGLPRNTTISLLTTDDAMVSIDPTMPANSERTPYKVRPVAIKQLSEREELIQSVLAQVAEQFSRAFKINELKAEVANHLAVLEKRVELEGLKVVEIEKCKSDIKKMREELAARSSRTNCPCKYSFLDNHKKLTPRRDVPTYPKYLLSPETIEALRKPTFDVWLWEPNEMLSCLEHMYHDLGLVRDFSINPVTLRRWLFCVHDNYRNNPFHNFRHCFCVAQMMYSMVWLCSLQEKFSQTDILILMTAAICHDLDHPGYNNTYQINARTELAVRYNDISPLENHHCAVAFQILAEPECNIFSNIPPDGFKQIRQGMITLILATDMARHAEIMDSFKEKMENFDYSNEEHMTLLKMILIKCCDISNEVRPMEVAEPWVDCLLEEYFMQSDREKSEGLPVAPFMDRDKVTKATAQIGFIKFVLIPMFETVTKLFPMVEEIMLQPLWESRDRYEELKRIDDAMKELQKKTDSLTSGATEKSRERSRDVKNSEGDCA

SMILES | Ki [1] [nM] | Ki [nM] | other results
C[C@H](c1ccc(C(F)(F)F)nc1)n1nc(C#N)c2c(=O)[nH]c([C@@H]3CC[C@H]3c3nc(C(F)F)cc(C(F)F)n3)nc21 [Example 116, 6-((1R,2R)-2-(4,6-bis(difluoromethyl)pyrimidin-2-yl)cyclobutyl)-4-oxo-1-((R)-1-(6-(trifluoromethyl)-pyridin-3-yl)ethyl)-4,5-dihydro-1H-pyrazolo[3,4-d]pyrimidine-3-carbonitrile] | 8.3 | – | –
CC(c1cncc(F)c1)n1nc(C#N)c2c(=O)[nH]c(C3CCC3c3ncccn3)nc21 (centres unmarked) [Example 66, 1-(1-(5-fluoropyridin-3-yl)ethyl)-4-oxo-6-(2-(pyrimidin-2-yl)cyclobutyl)-4,5-dihydro-1H-pyrazolo[3,4-d]pyrimidine-3-carbonitrile] | > 67.5 | – | –
CC(c1cncc(F)c1)n1nc(C#N)c2c(=O)[nH]c(C3CCC3c3ncccn3)nc21 (single isomer, unassigned) [Example 65, 1-(1-(5-fluoropyridin-3-yl)ethyl)-4-oxo-6-(2-(pyrimidin-2-yl)cyclobutyl)-4,5-dihydro-1H-pyrazolo[3,4-d]pyrimidine-3-carbonitrile] | – | – | Ki [2]: > 67.5 nM
CC(c1cnn(C)c1)n1nc(C#N)c2c(=O)[nH]c(C3CCC3c3ncccn3)nc21 (single isomer, unassigned) [Example 69, 1-(1-(1-methyl-1H-pyrazol-4-yl)ethyl)-4-oxo-6-(2-(pyrimidin-2-yl)cyclobutyl)-4,5-dihydro-1H-pyrazolo[3,4-d]pyrimidine-3-carbonitrile] | – | – | Ki [2]: > 67.5 nM
CC(c1cncc(F)c1)n1nc(C#N)c2c(=O)[nH]c(C3CCC3c3ncccn3)nc21 (single isomer, unassigned) [Example 64, 1-(1-(5-fluoropyridin-3-yl)ethyl)-4-oxo-6-(2-(pyrimidin-2-yl)cyclobutyl)-4,5-dihydro-1H-pyrazolo[3,4-d]pyrimidine-3-carbonitrile] | – | > 67.5 | –
CC(c1cnn(C)c1)n1nc(C#N)c2c(=O)[nH]c(C3CCC3c3ncccn3)nc21 (single isomer, unassigned) [Example 68, 1-(1-(1-methyl-1H-pyrazol-4-yl)ethyl)-4-oxo-6-(2-(pyrimidin-2-yl)cyclobutyl)-4,5-dihydro-1H-pyrazolo[3,4-d]pyrimidine-3-carbonitrile] | – | > 67.5 | –
CC(C1CCOCC1)n1nc(C#N)c2c(=O)[nH]c(C3CCC3c3ncc(F)cn3)nc21 (centres unmarked) [Example 85, 6-(2-(5-fluoropyrimidin-2-yl)cyclobutyl)-4-oxo-1-(1-(tetrahydro-2H-pyran-4-yl)ethyl)-4,5-dihydro-1H-pyrazolo[3,4-d]pyrimidine-3-carbonitrile] | > 607 | – | –
CC(c1cnn(C)c1)n1nc(C#N)c2c(=O)[nH]c(C3CCC3c3ncccn3)nc21 (centres unmarked) [Example 71, 1-(1-(1-methyl-1H-pyrazol-4-yl)ethyl)-4-oxo-6-(2-(pyrimidin-2-yl)cyclobutyl)-4,5-dihydro-1H-pyrazolo[3,4-d]pyrimidine-3-carbonitrile] | – | > 67.5 | –
